# According to BindingDB's records for doi:10.1021/jm00381a005 (1985):
# Test: Inhibitory activity against thromboxane B2 formation (TXA2 synthase) by incubating prostaglandin H2 (PGH-2) with horse platelet microsomes
row,Structure (SMILES),IC50 [µM]
1,O=C(O)CCCC/C=C(\c1cccnc1)c1ccccc1Br [7-(2-Bromo-phenyl)-7-pyridin-3-yl-hept-6-enoic acid],0.13
2,O=C(O)CCC/C=C(/c1ccccc1)c1cccnc1 [6-Phenyl-6-pyridin-3-yl-hex-5-enoic acid],0.28
3,O=C(O)C(CCC/C=C(\c1ccccc1)c1cccnc1)C1(O)CCCC1 (configuration not stated) [2-(1-Hydroxy-cyclopentyl)-7-phenyl-7-pyridin-3-yl-hept-6-enoic acid],0.065
4,CC(C)(O)C(CCC/C=C(\c1ccccc1)c1cccnc1)C(=O)O (configuration not stated) [2-(1-Hydroxy-1-methyl-ethyl)-7-phenyl-7-pyridin-3-yl-hept-6-enoic acid],0.042
5,COCC(CCC/C=C(\c1ccccc1)c1cccnc1)C(=O)O (configuration not stated) [2-Methoxymethyl-7-phenyl-7-pyridin-3-yl-hept-6-enoic acid],0.041
6,C=CCC(CCC/C=C(\c1ccccc1)c1cccnc1)C(=O)O (configuration not stated) [2-Allyl-7-phenyl-7-pyridin-3-yl-hept-6-enoic acid],0.05
7,O=C(O)CCCC/C=C(\c1cccnc1)c1cccc([N+](=O)[O-])c1 [7-(3-Nitro-phenyl)-7-pyridin-3-yl-hept-6-enoic acid],0.073
8,O=C(O)CCCC/C=C(/c1ccc(Br)cc1)c1cccnc1 [7-(4-Bromo-phenyl)-7-pyridin-3-yl-hept-6-enoic acid],0.082
9,"CC(C)(CCCC/C=C(/c1ccccc1)c1cccnc1)C(=O)O [2,2-Dimethyl-8-phenyl-8-pyridin-3-yl-oct-7-enoic acid]",0.038
10,O=C(O)CCCC/C=C(\c1cccnc1)c1cccc(Br)c1 [7-(3-Bromo-phenyl)-7-pyridin-3-yl-hept-6-enoic acid],0.18
11,CSC(CCC/C=C(\c1ccccc1)c1cccnc1)C(=O)O (configuration not stated) [2-Methylsulfanyl-7-phenyl-7-pyridin-3-yl-hept-6-enoic acid],0.03
12,O=C(O)CCC/C=C(\c1ccccc1)c1cccnc1 [6-Phenyl-6-pyridin-3-yl-hex-5-enoic acid],0.03
13,O=C(O)CCCC/C=C(\c1ccccc1)c1ccc[n+]([O-])c1 [7-(1-Oxy-pyridin-3-yl)-7-phenyl-hept-6-enoic acid],> 10
14,O=C(O)C(CCC/C=C(\c1cccnc1)c1cccs1)c1ccccc1 (configuration not stated) [2-Phenyl-7-pyridin-3-yl-7-thiophen-2-yl-hept-6-enoic acid],0.032
15,Cc1ccsc1/C(=C/CCCCC(=O)O)c1cccnc1 [7-(3-Methyl-thiophen-2-yl)-7-pyridin-3-yl-hept-6-enoic acid],0.029
16,O=C(O)C(CCC/C=C(\c1ccccc1)c1cccnc1)C1=CCCC1 (configuration not stated) [2-Cyclopent-1-enyl-7-phenyl-7-pyridin-3-yl-hept-6-enoic acid],0.06
17,"CC(C)(CCCC/C=C(\c1ccccc1)c1cccnc1)C(=O)O [2,2-Dimethyl-8-phenyl-8-pyridin-3-yl-oct-7-enoic acid]",0.045
18,O=C(O)CCCC/C=C(/c1ccc(F)cc1)c1cccnc1 [7-(4-Fluoro-phenyl)-7-pyridin-3-yl-hept-6-enoic acid],0.083
19,"CC(C)(CCC/C=C(\c1ccccc1)c1cccnc1)C(=O)O [2,2-Dimethyl-7-phenyl-7-pyridin-3-yl-hept-6-enoic acid]",0.021
20,CC(C)CSC(CCC/C=C(\c1ccccc1)c1cccnc1)C(=O)O (configuration not stated) [2-Isobutylsulfanyl-7-phenyl-7-pyridin-3-yl-hept-6-enoic acid],0.11
21,O=C(O)C(CCC/C=C(/c1cccnc1)c1cccs1)c1ccccc1 (configuration not stated) [2-Phenyl-7-pyridin-3-yl-7-thiophen-2-yl-hept-6-enoic acid],0.05
22,O=C(O)CCCC/C=C(\c1cccnc1)c1cccc(F)c1 [7-(3-Fluoro-phenyl)-7-pyridin-3-yl-hept-6-enoic acid],0.055
23,C=C(C)C(CCC/C=C(\c1ccccc1)c1cccnc1)C(=O)O (configuration not stated) [2-Isopropenyl-7-phenyl-7-pyridin-3-yl-hept-6-enoic acid],0.028
24,"CC(C)(CCC/C=C(/c1ccccc1)c1cccnc1)C(=O)O [2,2-Dimethyl-7-phenyl-7-pyridin-3-yl-hept-6-enoic acid]",0.03

# Further lines, results first:
row,IC50 [µM],Structure (SMILES)
1,0.25,O=C(O)CCCC/C=C\c1cccnc1 [7-Pyridin-3-yl-hept-6-enoic acid]
2,0.1,COC(=O)CCCC/C=C(\c1ccccc1)c1cccnc1 [7-Phenyl-7-pyridin-3-yl-hept-6-enoic acid methyl ester]
3,0.085,Cc1ccc(/C(=C/CCCCC(=O)O)c2cccnc2)cc1 [7-Pyridin-3-yl-7-p-tolyl-hept-6-enoic acid]
4,0.02,O=C(O)CCCC/C=C(\c1cccnc1)c1cccs1 [7-Pyridin-3-yl-7-thiophen-2-yl-hept-6-enoic acid]
5,0.6,CCOC(=O)CCCC/C=C(\c1ccccc1)c1cccnc1 [7-Phenyl-7-pyridin-3-yl-hept-6-enoic acid ethyl ester]
6,0.52,O=C(O)CCCCCCCCC/C=C(/c1ccccc1)c1cccnc1 [12-Phenyl-12-pyridin-3-yl-dodec-11-enoic acid]
7,0.033,O=C(O)C(CCC/C=C(\c1ccccc1)c1cccnc1)Sc1ccccc1 (configuration not stated) [7-Phenyl-2-phenylsulfanyl-7-pyridin-3-yl-hept-6-enoic acid]
8,0.065,O=C(O)CCCC/C=C(/CCCc1ccccc1)c1cccnc1 [10-Phenyl-7-pyridin-3-yl-dec-6-enoic acid]
9,0.08,COc1ccc(/C(=C/CCCCC(=O)O)c2cccnc2)cc1 [7-(4-Methoxy-phenyl)-7-pyridin-3-yl-hept-6-enoic acid]
10,> 100,O=C(O)CCCC/C=C(/c1ccccc1)c1ccccn1 [7-Phenyl-7-pyridin-2-yl-hept-6-enoic acid]
11,0.4,NC(=O)CCCC/C=C(\c1ccccc1)c1cccnc1 [7-Phenyl-7-pyridin-3-yl-hept-6-enoic acid amide]
12,0.071,C/C(=C/CCCCC(=O)O)c1cccnc1 [7-Pyridin-3-yl-oct-6-enoic acid]
13,0.054,O=C(O)CCCC/C=C(/c1cccnc1)c1cccs1 [(Z)-7-Pyridin-3-yl-7-thiophen-2-yl-hept-6-enoic acid]
14,0.062,O=C(O)CCCC/C=C(/c1cccnc1)c1ccsc1 [(Z)-7-Pyridin-3-yl-7-thiophen-3-yl-hept-6-enoic acid]
15,0.21,C/C(=C\CCCCC(=O)O)c1cccnc1 [(Z)-7-Pyridin-3-yl-oct-6-enoic acid]
16,2.7,O=C(O)CCCCCC(c1ccccc1)c1cccnc1 (configuration not stated) [7-Phenyl-7-pyridin-3-yl-heptanoic acid]
17,0.031,O=C(O)CCCC/C=C(\c1cccnc1)c1ccsc1 [7-Pyridin-3-yl-7-thiophen-3-yl-hept-6-enoic acid]
18,0.055,O=C(O)CCCCCCCCC/C=C(\c1ccccc1)c1cccnc1 [12-Phenyl-12-pyridin-3-yl-dodec-11-enoic acid]
